± gives the expanded uncertainty stated by the source.
Experiment: xn = mol fraction of the nth substance listed
Details: Liquid, Vibrating tube method

CCCCCCCCCC [decane] + CCCCCCCC
Details | mass density [kg/m3]
363.03 K, 7000 kPa, x2 = 0.0616 | 682.5 ± 0.45
363.03 K, 8000 kPa, x2 = 0.0616 | 683.6 ± 0.45
363.03 K, 9000 kPa, x2 = 0.0616 | 684.68 ± 0.46
363.03 K, 10000 kPa, x2 = 0.0616 | 685.7 ± 0.46
363.03 K, 10990 kPa, x2 = 0.0616 | 686.75 ± 0.47
363.03 K, 12000 kPa, x2 = 0.0616 | 687.8 ± 0.47
363.03 K, 13000 kPa, x2 = 0.0616 | 688.75 ± 0.48
363.03 K, 14000 kPa, x2 = 0.0616 | 689.77 ± 0.49
363.03 K, 15000 kPa, x2 = 0.0616 | 690.77 ± 0.49
363.03 K, 16000 kPa, x2 = 0.0616 | 691.73 ± 0.5
363.03 K, 17000 kPa, x2 = 0.0616 | 692.68 ± 0.51
363.03 K, 18000 kPa, x2 = 0.0616 | 693.63 ± 0.51
363.03 K, 19000 kPa, x2 = 0.0616 | 694.55 ± 0.52
363.03 K, 20000 kPa, x2 = 0.0616 | 695.46 ± 0.53
363.03 K, 21000 kPa, x2 = 0.0616 | 696.37 ± 0.53
363.03 K, 22000 kPa, x2 = 0.0616 | 697.23 ± 0.54
363.03 K, 23000 kPa, x2 = 0.0616 | 698.12 ± 0.55
363.03 K, 24000 kPa, x2 = 0.0616 | 699 ± 0.55
363.03 K, 25000 kPa, x2 = 0.0616 | 699.81 ± 0.56
363.05 K, 1000 kPa, x2 = 0.2801 | 670.18 ± 0.42
363.05 K, 2000 kPa, x2 = 0.2801 | 671.39 ± 0.42
363.05 K, 3000 kPa, x2 = 0.2801 | 672.48 ± 0.43
363.05 K, 4000 kPa, x2 = 0.2801 | 673.67 ± 0.43
363.05 K, 5000 kPa, x2 = 0.2801 | 674.81 ± 0.44
363.05 K, 6000 kPa, x2 = 0.2801 | 675.97 ± 0.44
363.05 K, 7000 kPa, x2 = 0.2801 | 677.07 ± 0.45
363.05 K, 8000 kPa, x2 = 0.2801 | 678.19 ± 0.45
363.05 K, 9000 kPa, x2 = 0.2801 | 679.28 ± 0.46
363.05 K, 10000 kPa, x2 = 0.2801 | 680.35 ± 0.47
363.05 K, 10990 kPa, x2 = 0.2801 | 681.42 ± 0.47
363.05 K, 12000 kPa, x2 = 0.2801 | 682.49 ± 0.48
363.05 K, 13000 kPa, x2 = 0.2801 | 683.53 ± 0.48
363.05 K, 14000 kPa, x2 = 0.2801 | 684.56 ± 0.49
363.05 K, 15000 kPa, x2 = 0.2801 | 685.57 ± 0.5
363.05 K, 16000 kPa, x2 = 0.2801 | 686.57 ± 0.5
363.05 K, 17000 kPa, x2 = 0.2801 | 687.56 ± 0.51
363.05 K, 18000 kPa, x2 = 0.2801 | 688.51 ± 0.52
363.05 K, 19000 kPa, x2 = 0.2801 | 689.47 ± 0.52
363.05 K, 20000 kPa, x2 = 0.2801 | 690.38 ± 0.53
363.05 K, 21000 kPa, x2 = 0.2801 | 691.33 ± 0.54
363.05 K, 22000 kPa, x2 = 0.2801 | 692.19 ± 0.54
363.05 K, 23000 kPa, x2 = 0.2801 | 693.06 ± 0.55
363.05 K, 24000 kPa, x2 = 0.2801 | 693.94 ± 0.56
363.05 K, 25000 kPa, x2 = 0.2801 | 694.78 ± 0.57
363.07 K, 1000 kPa, x2 = 0.7736 | 654.79 ± 0.42
363.07 K, 1000 kPa, x2 = 0.9623 | 647.67 ± 0.43
363.07 K, 2000 kPa, x2 = 0.7736 | 656.13 ± 0.43
363.07 K, 2000 kPa, x2 = 0.9623 | 649.03 ± 0.43
363.07 K, 3000 kPa, x2 = 0.7736 | 657.39 ± 0.43
363.07 K, 3000 kPa, x2 = 0.9623 | 650.38 ± 0.44
363.07 K, 4000 kPa, x2 = 0.7736 | 658.68 ± 0.44
363.07 K, 4000 kPa, x2 = 0.9623 | 651.7 ± 0.44
363.07 K, 5000 kPa, x2 = 0.7736 | 659.92 ± 0.45
363.07 K, 5000 kPa, x2 = 0.9623 | 652.98 ± 0.45
363.07 K, 6000 kPa, x2 = 0.7736 | 661.18 ± 0.45
363.07 K, 6000 kPa, x2 = 0.9623 | 654.25 ± 0.45
363.07 K, 7000 kPa, x2 = 0.7736 | 662.38 ± 0.46
363.07 K, 7000 kPa, x2 = 0.9623 | 655.52 ± 0.46
363.07 K, 8000 kPa, x2 = 0.7736 | 663.57 ± 0.46
363.07 K, 8000 kPa, x2 = 0.9623 | 656.76 ± 0.47
363.07 K, 9000 kPa, x2 = 0.7736 | 664.75 ± 0.47
363.07 K, 9000 kPa, x2 = 0.9623 | 658 ± 0.47
363.07 K, 10000 kPa, x2 = 0.7736 | 665.92 ± 0.48
363.07 K, 10000 kPa, x2 = 0.9623 | 659.23 ± 0.48
363.07 K, 10990 kPa, x2 = 0.7736 | 667.06 ± 0.48
363.07 K, 10990 kPa, x2 = 0.9623 | 660.42 ± 0.49
363.07 K, 12000 kPa, x2 = 0.7736 | 668.19 ± 0.49
363.07 K, 12000 kPa, x2 = 0.9623 | 661.58 ± 0.49
363.07 K, 13000 kPa, x2 = 0.7736 | 669.32 ± 0.5
363.07 K, 13000 kPa, x2 = 0.9623 | 662.75 ± 0.5
363.07 K, 14000 kPa, x2 = 0.7736 | 670.41 ± 0.5
363.07 K, 14000 kPa, x2 = 0.9623 | 663.87 ± 0.51
363.07 K, 15000 kPa, x2 = 0.7736 | 671.49 ± 0.51
363.07 K, 15000 kPa, x2 = 0.9623 | 664.99 ± 0.51
363.07 K, 16000 kPa, x2 = 0.7736 | 672.56 ± 0.52
363.07 K, 16000 kPa, x2 = 0.9623 | 666.07 ± 0.52
363.07 K, 17000 kPa, x2 = 0.7736 | 673.6 ± 0.52
363.07 K, 17000 kPa, x2 = 0.9623 | 667.17 ± 0.53
363.07 K, 18000 kPa, x2 = 0.7736 | 674.63 ± 0.53
363.07 K, 18000 kPa, x2 = 0.9623 | 668.2 ± 0.54
363.07 K, 19000 kPa, x2 = 0.7736 | 675.61 ± 0.54
363.07 K, 19000 kPa, x2 = 0.9623 | 669.26 ± 0.54
363.07 K, 20000 kPa, x2 = 0.7736 | 676.63 ± 0.55
363.07 K, 20000 kPa, x2 = 0.9623 | 670.29 ± 0.55
363.07 K, 21000 kPa, x2 = 0.7736 | 677.57 ± 0.55
363.07 K, 21000 kPa, x2 = 0.9623 | 671.3 ± 0.56
363.07 K, 22000 kPa, x2 = 0.7736 | 678.47 ± 0.56
363.07 K, 22000 kPa, x2 = 0.9623 | 672.27 ± 0.57
363.07 K, 23000 kPa, x2 = 0.7736 | 679.43 ± 0.57
363.07 K, 23000 kPa, x2 = 0.9623 | 673.14 ± 0.58
363.07 K, 24000 kPa, x2 = 0.7736 | 680.34 ± 0.58
363.07 K, 24000 kPa, x2 = 0.9623 | 674.08 ± 0.58
363.07 K, 25000 kPa, x2 = 0.7736 | 681.28 ± 0.58
363.07 K, 25000 kPa, x2 = 0.9623 | 674.98 ± 0.59

Reference: the NIST ThermoML archive (doi:10.1016/j.jct.2011.08.016)
